Measured values taken from patent US6306907A, “Antipsychotic” (Taiyo Fishery Co., Ltd., priority 1992, dated 2001).

Experiments:
NMDA receptors = assay: Electrophysiological patch clamp test of the NMDA-induced current in hippocampal CA1 neurons; format: cell-based, rat
Description: Under the circumstances, the effects of docosahexaenoic acid on NMDA receptors of PCP were investigated.
The investigation was conducted by an electrophysiological procedure. More specifically, the brain of a 2-week-old rat was delivered and slices were prepared. Then, neurons were taken from the hippocampal CA1 region and used as samples. An electrophysiological test was conducted by a patch clamp method under fixed potential conditions.

[1] = system: negative symptoms of schizophrenia; assay: One-month oral administration to subjects, compared with placebo; format: in vivo; conditions: human, oral 300 mg three times a day
Description: Sixteen subjects aged from 35 to 60 were treated with either the antipsychotic of the present invention or a placebo. Eleven out of these sixteen subjects had been treated with chlorpromazine and haloperidol in the past. Eight subjects were treated with the antipsychotic of the present invention and the other eight were treated with the placebo.
Docosahexaenoic acid or placebo was orally administered to the subjects three times a day, each in a dose of 300 mg.

Question: `CN[C@H](CC(=O)O)C(=O)O` [NMDA, N-methyl-D-aspartic acid] was tested. Which “inward current caused by NMDA” value (NMDA receptors; 30 μM NMDA, holding potential -50 mV, rat hippocampal CA1 neurons) did it give?
Answer: The value was 300 pA.

Question: Which “change of NMDA-induced current on treatment with PCP” value (NMDA receptors; 5 μM PCP and 30 μM NMDA) does the source give for `c1ccc(C2(N3CCCCC3)CCCCC2)cc1` [PCP, phencyclidine] here?
Answer: The value was “decreased by half”.

Question: For `CC/C=C\C/C=C\C/C=C\C/C=C\C/C=C\C/C=C\CCC(=O)O` [docosahexaenoic acid], which primary side effects [1] is on record?
Answer: Its primary side effects is “neither primary side effects”.

Question: And the “variations in biochemical blood and urine tests” value [1]?
Answer: Its value is “nor significant variations in biochemical blood and urine tests”.
